Assay [1] has as its target T1, STAT3 (Homo sapiens, UniProt P40763).
T1 construct: recombinant human STAT3 protein (rhSTAT3)
Nature of the assay: SPR (Biacore T200, STAT3 amine-coupled to CM5 chip); positive control measured by the authors. It counts as binding. A general note: SPR reads the build-up and loss of mass on a sensor chip optically.

For assay [2], the target named is T1, STAT3. Description: SPR (Biacore T200, STAT3 amine-coupled to CM5 chip). It counts as binding.

T1 sequence (P40763 2-770): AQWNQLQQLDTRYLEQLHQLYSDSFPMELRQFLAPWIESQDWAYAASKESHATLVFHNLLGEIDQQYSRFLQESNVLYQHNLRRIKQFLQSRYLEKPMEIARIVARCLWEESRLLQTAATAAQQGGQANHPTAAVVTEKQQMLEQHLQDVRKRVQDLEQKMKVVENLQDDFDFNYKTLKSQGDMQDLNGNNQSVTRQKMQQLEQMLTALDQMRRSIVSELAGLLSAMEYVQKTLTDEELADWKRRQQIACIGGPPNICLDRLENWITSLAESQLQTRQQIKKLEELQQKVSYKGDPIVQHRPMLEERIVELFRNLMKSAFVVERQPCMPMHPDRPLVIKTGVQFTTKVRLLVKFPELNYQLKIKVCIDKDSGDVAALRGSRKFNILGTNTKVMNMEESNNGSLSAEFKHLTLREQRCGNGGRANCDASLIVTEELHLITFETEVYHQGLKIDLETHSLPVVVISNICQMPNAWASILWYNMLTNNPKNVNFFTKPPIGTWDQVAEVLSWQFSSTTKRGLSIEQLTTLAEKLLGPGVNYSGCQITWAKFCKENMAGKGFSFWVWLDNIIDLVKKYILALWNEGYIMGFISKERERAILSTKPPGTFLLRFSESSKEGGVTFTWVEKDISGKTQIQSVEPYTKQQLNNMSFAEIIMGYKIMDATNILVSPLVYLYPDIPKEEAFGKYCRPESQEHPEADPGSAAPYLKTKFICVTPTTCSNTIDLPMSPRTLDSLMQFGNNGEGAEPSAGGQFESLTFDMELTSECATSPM

By Kd is commonly meant the free concentration of one partner at which half of the binding sites on the other are occupied at equilibrium, for simple one-to-one binding. Higher therefore signals weaker binding. `CC1=C(O)C(=O)C=C2C1=CC=C1[C@@]2(C)CC[C@@]2(C)[C@@H]3C[C@](C)(C(=O)O)CC[C@]3(C)CC[C@]12C` [CEL, Celastrol] gave a Kd in assay [1] of 60.4 µM.
As to `CC1=C(O)C(=O)C=C2C1=CC=C1[C@@]2(C)CC[C@@]2(C)[C@@H]3C[C@](C)(C(=O)NCCc4cccs4)CC[C@]3(C)CC[C@]12C` [4m, 3-Hydroxy-9β,13α-dimethyl-2-oxo-24,25,26-trinoroleana-1(10),3,5,7-tetraen-29-oic acid 2–(2-thienyl) ethylamide], the Kd in assay [2] was 45.3 µM.

The record behind these values is paper PMC8667935, “Synthesis and biological evaluation of celastrol derivatives as potent antitumor agents with STAT3 inhibition” (Journal of Enzyme Inhibition and Medicinal Chemistry, 2021).
